Data: patent US20120322102A1, “GENETICALLY ENGINEERED HERBICIDE RESISTANT ALGAE” (SAPPHIRE ENERGY, INC., priority 2008, published 2012)
Read-outs that look alike come from different tables or passages of the source.

Tests used:
[1] = test system: Wildtype Chlamydomonas reinhardtii; settings: cited from earlier work; for Complete Growth inhibition: concentration at which growth is inhibited; for IC50: Vartak and Sujata 1997/1999, read-out: I50
[2] = test system: Resistant Chlamydomonas reinhardtii; settings: cited from earlier work; for Highest tolerated concentration: highest concentration an isolated resistant strain can tolerate; for IC50: Vartak and Sujata 1997/1999, read-out: I50
[3] = test system: Wildtype Chlamydomonas reinhardtii; experiment: Herbicide concentration at which growth of wild type algae is inhibited (chart); type: cell-based; settings: unpublished results
Text: (§1) Provided below is an exemplary chart of herbicide concentrations that can be used in the embodiments disclosed herein. The concentrations provided are the concentration that growth of the wild type algae is inhibited at, and the highest concentrations that an isolated resistant strain of Chlamydomonas reinhardtii can tolerate. One of skill in the art would be able to determine the proper concentration of the herbicides listed in the chart without undue experimentation.

[4] = test system: Resistant Chlamydomonas reinhardtii; experiment: Highest herbicide concentration an isolated resistant strain can tolerate (chart); type: cell-based; settings: unpublished results
Text: as §1

[5] = test system: atpA-EPSPS (G163A/A252T) engineered C. reinhardtii strain; experiment: Growth on HSM plates with increasing amounts of glyphosate; type: cell-based, Chlamydomonas reinhardtii; settings: 0-2 mM glyphosate, chloroplast atpA-EPSPS (G163A/A252T) strain
Experimental: (§2) To characterize the effect of expressing the double mutated C. reinhardtii EPSPS directly in the chloroplast, engineered strains, along with wild type C. reinhardtii cc 1690 (mt+), were plated on HSM plates with increasing amounts of glyphosate (0-2 mM). Wild type C. reinhardtii cc1690 was sensitive to approximately 1 mM glyphosate whereas the psbD-EPSPS (G163A/A252T) and atpA-EPSPS (G163A/A252T) engineered strains were sensitive at approximately 1.8 and 1.6 mM glyphosate, respectively.

[6] = test system: psbD-EPSPS (G163A/A252T) engineered C. reinhardtii strain; experiment: as above; type: cell-based, Chlamydomonas reinhardtii; settings: 0-2 mM glyphosate, chloroplast psbD-EPSPS (G163A/A252T) strain
Experimental: as §2

[7] = test system: wild type C. reinhardtii cc1690 (mt+); experiment: as above; type: cell-based, Chlamydomonas reinhardtii; settings: 0-2 mM glyphosate
Experimental: as §2

CCNc1nc(Cl)nc(NC(C)C)n1 [Atrazine]
Complete Growth inhibition ([1]; Galloway and Mets 1984): 5 µM
Highest tolerated concentration ([2]; Galloway and Mets 1984): 100 µM

CCC(C)n1c(=O)[nH]c(C)c(Br)c1=O (stereo not shown) [Bromacil]
Complete Growth inhibition ([1]; Galloway and Mets 1984): 2 µM
Highest tolerated concentration ([2]; Galloway and Mets 1984): 50 µM

COc1nc(C)nc(NC(=O)NS(=O)(=O)c2ccccc2Cl)n1 [Chlorsulfuron]
Complete Growth inhibition ([1]; Winder and Spalding 1988): 100 µM
Highest tolerated concentration ([2]; Winder and Spalding 1988): 1000 µM

CN(C)C(=O)Nc1ccc(Cl)c(Cl)c1 [DCMU, 3-(3,4-dichlorophenyl)-1,1-dimethylurea]
Complete Growth inhibition ([1]; Galloway and Mets 1984): 2 µM
Highest tolerated concentration ([2]; Galloway and Mets 1984): 200 µM

O=C(O)CNCP(=O)(O)O [Glyphosate]
Complete Growth inhibition [3]: 1 mM
Complete Growth inhibition [4]: 5 mM
glyphosate concentration the strain was sensitive to [5]: ~1.6 mM
glyphosate concentration the strain was sensitive to [6]: approximately 1.8 mM
glyphosate concentration the strain was sensitive to [7]: approximately 1 mM

CC(C)C1(C)N=C(c2nc3ccccc3cc2C(=O)O)NC1=O (stereo not shown) [Imazaquin]
Complete Growth inhibition ([1]; Winder and Spalding 1988): 1000 µM
Highest tolerated concentration ([2]; Winder and Spalding 1988): 10000 µM

CNc1cnn(-c2cccc(C(F)(F)F)c2)c(=O)c1Cl [Norflurazon]
IC50 [1]: 1.1 µM
IC50 [2]: 3.6 µM

C[n+]1ccc(-c2cc[n+](C)cc2)cc1 [Paraquat]
IC50 [1]: 0.7 µM
IC50 [2]: 54 µM
